This is an account of results in patent publication US20060008849A1, “Methods for measuring chloride channel conductivity” (priority 2004, published 2006).

In assay [1] the target is T1, human GABAA channel (UniProt P18508+P28472+P62813).
T1 construct: host or cells: ATCC CRL-2029 (WSS-1, HEK293-derived, by own knowledge)
As to the kind of experiment: Sandell-Kolthoff (SK) assay on the outwardly rectifying GABAA receptor (iodide efflux). Format: cell-based. The note with it: IC50, decrease of GABAA channel conductivity. As to the method: In addition, the iodine loading buffer consisting of 150 mM NaI, 2 mM CaCl2, 0.8 mM NaH2PO4, 1 mM of MgCl2, and 5 mM of IK, 2% FBS (# 35-010-AV, CELLGRO, VA) pH7.4, was prepared by mixing and dissolving each described component into purified water, and adjusting the pH accordingly.
Cell line expressing human GABAA (Adenovirus type) was obtained from the American Type Culture Collection (ATCC, Cat No. CRL-2029). Cells were grown in supplemented DMEM medium consisting of DMEM medium (#10-017-CV, CELLGRO, VA), 4 mM L-glutamine, 1.5 g/L sodium bicarbonate, 4.5 g/L glucose, 1.0 mM sodium pyruvate, and 10% fetal bovine serum (# 35-010-AV, CELLGRO, VA)
Cells in supplemented DMEM medium (200 μl, approx. 250,000 cells/ml) were added to each well of a D-lysine coated 96-well plate (Corning, Cat No. 3667), and were incubated overnight in a tissue culture incubator at 37° C. under 90% air/10% CO2. Then, the supplemented DMEM medium was removed with a multichannel pipettor, and 200 μl iodine-loading buffer was added to each well with Rapid Plate™ (Zymark, MA). Cells were incubated for 2-4 hours at 37° C. under 90% air/10% CO2, and were subsequently washed with phosphate buffer saline (DPBS, Invitrogen, CA), or culture medium. […] The amount of I^− in the lysed cells was measured by the SK assay procedure described in Example 1.
IC50s were calculated with IDBS XL-fit model 205 (IDBS, UK).

Assay [2] has as its system human CFTR channel. As to the kind of experiment: Sandell-Kolthoff (SK) assay on the outwardly rectifying CFTR channel, HTB-79 cells. The class given is cell-based. As to the method:
HTB-79 cell line intrinsically expressing the human CFTR channel was obtained from ATCC. The CRL-1918 cell line, having a defective CFTR channel, was also obtained from ATCC. Cells were grown in Iscove's modified Dulbecco's medium consisting of Iscove's modified medium (CELLGRO, VA) and 4 mM L-glutamine, 1.5 g/L sodium bicarbonate, and 20% FBS (CELLGRO, VA). HTB-79 cells in Iscove's modified Dulbecco's medium (200 μl, approx. 500,000 cells/ml) were added to each well of a costar 96-well plate (Corning Costar, NY), and were incubated overnight in a tissue culture incubator at 37° C. under 90% air/5% CO2. Then, the Iscove's modified Dulbecco's medium was removed and 200 μl of iodine-loading buffer was added to each well of the plate. Cells were incubated for 2-4 hours at 37° C. under 90% air/5% CO2 and washed with DPBS (Invitrogen, CA) or culture medium. DPBS (100-200 μl) was added to each well. […] After the cells were incubated at room temperature for an additional 5 minutes, they were separated from the suspending buffer, and were lysed with 100 μl of cell lysis buffer (1% Triton X-100). The amount of I^− in the lysed cells was measured by the SK assay procedure described in Example 1. […] Forskolin stimulated adenylate cyclase activity resulting in increased level of cAMP, which in turn activated CFTR channel.

T1 sequence (P62813 28-455): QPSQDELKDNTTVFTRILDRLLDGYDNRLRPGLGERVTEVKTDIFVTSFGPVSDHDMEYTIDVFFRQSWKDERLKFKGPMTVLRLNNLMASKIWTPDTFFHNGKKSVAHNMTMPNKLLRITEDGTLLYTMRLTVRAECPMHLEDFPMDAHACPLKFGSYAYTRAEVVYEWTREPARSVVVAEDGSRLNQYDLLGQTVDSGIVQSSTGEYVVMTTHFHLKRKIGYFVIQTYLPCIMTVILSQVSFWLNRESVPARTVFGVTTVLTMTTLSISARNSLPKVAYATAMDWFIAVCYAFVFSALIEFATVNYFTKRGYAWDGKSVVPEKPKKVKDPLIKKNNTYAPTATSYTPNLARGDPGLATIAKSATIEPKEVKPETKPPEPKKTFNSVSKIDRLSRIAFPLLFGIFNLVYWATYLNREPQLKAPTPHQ
T1 sequence (P28472 26-473): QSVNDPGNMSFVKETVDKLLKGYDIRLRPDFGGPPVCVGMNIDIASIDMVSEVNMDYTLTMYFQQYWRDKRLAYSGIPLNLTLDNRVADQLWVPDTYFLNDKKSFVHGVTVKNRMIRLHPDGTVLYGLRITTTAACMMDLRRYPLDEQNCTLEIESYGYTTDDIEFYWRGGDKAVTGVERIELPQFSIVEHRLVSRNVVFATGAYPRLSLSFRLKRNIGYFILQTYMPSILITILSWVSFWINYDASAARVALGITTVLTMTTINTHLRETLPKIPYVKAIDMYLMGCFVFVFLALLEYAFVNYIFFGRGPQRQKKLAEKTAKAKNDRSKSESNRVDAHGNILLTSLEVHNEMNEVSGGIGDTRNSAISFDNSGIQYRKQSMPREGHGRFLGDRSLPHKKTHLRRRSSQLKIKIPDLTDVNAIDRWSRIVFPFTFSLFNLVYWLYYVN
T1 sequence (P18508 39-466): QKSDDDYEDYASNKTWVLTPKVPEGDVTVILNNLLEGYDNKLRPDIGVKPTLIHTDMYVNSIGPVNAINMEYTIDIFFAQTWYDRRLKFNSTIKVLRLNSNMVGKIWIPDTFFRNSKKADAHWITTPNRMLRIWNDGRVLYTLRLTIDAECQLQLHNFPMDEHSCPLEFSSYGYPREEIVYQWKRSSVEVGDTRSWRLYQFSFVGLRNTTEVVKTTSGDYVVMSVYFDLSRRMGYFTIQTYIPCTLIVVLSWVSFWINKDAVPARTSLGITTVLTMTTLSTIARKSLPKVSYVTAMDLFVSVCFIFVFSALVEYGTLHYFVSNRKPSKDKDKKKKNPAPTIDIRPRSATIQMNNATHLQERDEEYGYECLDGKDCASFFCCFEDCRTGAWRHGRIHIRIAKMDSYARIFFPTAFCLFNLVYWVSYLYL

A word on the IC50: it is the point on the concentration scale where inhibition reaches its midpoint. Take `CN1CCc2cc3c(cc2[C@H]1[C@@H]1OC(=O)c2c1ccc1c2OCO1)OCO3` [Bicuculline]: the IC50 in assay [1] (in the presence of 30 μM GABA) is approximately 1000 nM; in assay [1] (in the presence of 300 μM GABA), approximately 50000 nM.
In general, EC50 refers to the midpoint of the concentration-response curve. Regarding `C=C[C@@]1(C)CC(=O)[C@]2(O)[C@@]3(C)[C@@H](O)CCC(C)(C)[C@@H]3[C@H](O)[C@H](OC(C)=O)[C@@]2(C)O1` [Forskolin], the “lowest concentration at which activation of CFTR was detected” value in assay [2] is recorded as 300 nM. For the same compound, the EC50 in assay [2] (one-half of activity with 100 μM Forskolin, read-out: EC50 for Forskolin, activation of CFTR channel) is 1000 nM.
